One assay concerns CEM-SS cells. As to the kind of experiment: CEM-SS MTT assay, cytotoxicity (Table I). The format is cell-based, human.
The test system of a further assay is HIV-1. Conditions: for EC50 / Maximum Protection (%): CEM-SS MTT assay; for protecting cells against HIV infection: text summary of Table I. In general terms: Tetrazolium assays rely on reduction of a dye to a coloured formazan, in cell work by metabolically active cells.

Structures are written as SMILES. Read-outs that look alike come from different tables or passages of the source.

The results in this text go back to patent publication US20020013478A1, “Calanolide analogues and methods of their use” (Sarawak Medichem Pharmaceuticals,Inc., priority 1994, published 2002).

In the assay with CEM-SS cells, `CCCc1cc(=O)oc2c3c(c4c(c12)OC(C)(C)C=C4)OC(C)(C)C(C)C3O` (racemic) [(±)-16c, (±)-11,12-cis-10,11-Dihydro-12-hydroxy-6,6,10,10,11-pentamethyl-4-propyl-2H, 6H, 12H-benzo [1,2-b:3,4-b′:5,6-b″]tripyran-2-one] showed an IC50 of 21.3 µM.

As for `CCCc1cc(=O)oc2c3c(c4c(c12)OC(C)(C)C=C4)O[C@@H](C)C(C)=C3` [Compound 22, 10(S)4-propyl-6,6,10,11-tetramethyl-2H,6H,10H-benzo [1,2-b:3,4-b′:5,6-b″]tripyran-2-one], in the assay on CEM-SS cells (Homo sapiens), 24.7 µM corresponded to half-maximal inhibition (IC50).

`CCCc1cc(=O)oc2c(C(=O)C(C)C(C)(C)O)c(O)c3c(c12)OC(C)(C)C=C3` (racemic) [(±)-14b, (±)-6.6-Dimethyl-10-(2,3-dimethyl-3-hydroxybutyro)-9-hydroxy4-propyl-2H,6H-benzo[1,2-b:3,4-b′]dipyran-2-one] displayed an IC50 with CEM-SS cells of 27.1 µM.

In turn, `CCCc1cc(=O)oc2c3c(c4c(c12)OC(C)(C)C=C4)OC(C)C(C)(C)C3O` (racemic) [(±)-16b, (±)-10,12-trans-10,11-dihydro-12-hydroxy-6,6,10,11,11-pentamethyl-4-propyl-2H,6H,12H-benzo [1,2-b:3,4-b′:5,6-b″]tripyran-2-one] registered an IC50 in the assay with CEM-SS cells of 16.9 µM. In the assay with HIV-1, the concentration giving a half-maximal response (EC50) was determined as 2.36 µM, the “Maximum Protection (%)” value is reported as 78% and the “protecting cells against HIV infection” value is recorded as “highly efficacious”.

In the assay with CEM-SS cells, `CCCc1cc(=O)oc2c3c(c4c(c12)OC(C)(C)C=C4)OC(C)C(C)C3=NOC` (racemic) [(±)-19b, (±)-10,11-trans-10,11 -Dihydro4-propyl-6,6,10,11-tetramethyl-2H, 6H, 12H-benzo [1,2-b:3,4-b′:5,6-b ″]tripyran-2,12-dione-12-methoxime] returned a 50% inhibitory concentration (IC50) of more than 100 µM. The molecule also registered an EC50 with HIV-1 of more than 100 µM.

`CCCc1cc(=O)oc2c3c(c4c(c12)OC(C)(C)C=C4)OC(CC)C(C)C3O` (racemic) [(±)-16e, (±)-10,11-trans-11,12-cis-10,11-Dihydro-10-ethyl-12-hydroxy-4-propyl-6,6,11-trimethyl-2H,6H,12H-benzo [1,2-b:3,4-b′:5,6-b″]tripyran-2-one] had a concentration for half-maximal inhibition (IC50) in the assay on CEM-SS cells of 14 µM. In the assay with HIV-1, the EC50 is 1.67 µM, the “Maximum Protection (%)” value was 88% and the “protecting cells against HIV infection” value is “highly efficacious”.

In turn, `CCCc1cc(=O)oc2c(C(=O)C(C)(C)C(C)O)c(O)c3c(c12)OC(C)(C)C=C3` (racemic) [(±)-14a, (±)-6,6-Dimethyl-10-(2,2-dimethyl-3-hydroxybutyro)-9-hydroxy-4-propyl-2H,6H-benzo[1,2-b:3,4-b′]dipyran-2-one] yielded an IC50 with CEM-SS cells of 37 µM.

The molecule `CCCc1cc(=O)oc2c3c(c4c(c12)OC(C)(C)C=C4)OC(CC)C(C)C3O` (racemic) [(±)-16g, (±)-10,11-cis-11,12-trans-10,11-Dihydro-10-ethyl-12-hydroxy-4-propyl-6,6,11-trimethyl-2H,6H,12H-benzo [1,2-b:3,4-b′:5,6-b″]tripyran-2-one] yielded an IC50 in the assay with CEM-SS cells of 11.6 µM.

For `CCCc1cc(=O)oc2c3c(c4c(c12)OC(C)(C)C=C4)O[C@H](C)[C@@H](C)C3=NO` (racemic) [(±)-19a, (±)10,11-trans-10,11-Dihydro4-propyl-6,6,10,11-tetramethyl-2H, 6H, 12H-benzo [1,2-b:3,4-b′:5,6-b″]tripyran-2,12-dione-12-oxime], in the assay on CEM-SS cells, the concentration for half-maximal inhibition (IC50) is 15.8 µM.

In the assay with CEM-SS cells, `CCCc1cc(=O)oc2c3c(c4c(c12)OC(C)(C)C=C4)OC(C)C(C)(C)C3O` (racemic) [(±)-16a, (±)-10,12-cis-10,11-Dihydro-12-hydroxy-6,6,10,11,11-pentamethyl-4propyl-2H, 6H, 12H-benzo [1,2-b:3,4-b′:5,6-b″]tripyran-2-one] showed an IC50 of 20.3 µM.

As to `CCCc1cc(=O)oc2c3c(c4c(c12)OC(C)(C)C=C4)OC(CC)C(C)C3O` (racemic) [(±)-16h, (±)-10,11,12-cis-10,11-dihydro10-ethyl-12-hydroxy4-propyl-6,6,11-trimethyl-2H,6H,12H-benzo [1,2-b:3,4-b′:5,6-b″]tripyran-2-one], it took 20.9 µM to reach half-maximal inhibition in the assay with CEM-SS cells (IC50).

In general, IC50 refers to the concentration that inhibits the measured activity by half. A word on the EC50: it is the concentration at which the effect is half-maximal. A low value points to greater potency.
